From patent US6569858B2, “12,13-(pyranosyl)-indolo[2,3-a]pyrrolo[3,4-c]carbazole and 12,13-(pyranosyl)-furo[3,4-c]indolo[2,3-a]carbazoles” (Les Laboratoires Servier, priority 1999, dated 2003)

System: murine leukaemia L1210
Assay: Murine leukaemia L1210 in vitro cytotoxicity (Microculture Tetrazolium Assay)
Type: cell-based
Conditions: L1210, exposure 48 hours (four doubling periods); read-out: IC50, the cytotoxic concentration that inhibits proliferation of treated cells by 50%
Method: The murine leukaemia L1210 was used in vitro. The cells are cultured in complete RPMI 1640 culture medium comprising 10% foetal calf serum, 2 mM glutamine, 50 units/ml of penicillin, 50 μg/ml of streptomycin and 10 mM Hepes, pH 7.4. The cells are distributed on microplates and are exposed to the cytotoxic compounds for four doubling periods, that is to say 48 hours. The number of viable cells is then quantified by a colorimetric assay, the Microculture Tetrazolium Assay (J. Carmichael et al., Cancer Res., 47, 936-942, (1987)). The results are expressed as IC50, the cytotoxic concentration that inhibits proliferation of treated cells by 50%.

Structure (SMILES)	IC50
COC1C(CO)OC2C(C1O)n1c3ccc([N+](=O)[O-])cc3c3c4c(c5c6cc([N+](=O)[O-])ccc6n2c5c31)C(=O)NC4=O [Example 13, 3,9-Dinitro-12,13-[1,2-(4—O-methyl-β-D-mannopyranosyl)]-6,7,12,13-tetrahydro-(5,H)-indolo[2,3-a]pyrrolo[3,4-c]carbazole-5,7-dione]	130 nM
COC1C(CO)OC2C(C1O)n1c3ccc(Br)cc3c3c4c(c5c6cc(Br)ccc6n2c5c31)C(=O)NC4=O [Example 19, 3,9-Dibromo-12,13-[1,2-(4—O-methyl-β-D-mannopyranosyl)]-6,7,12,13-tetrahydro-(5H)-indolo[2,3-a]pyrrolo[3,4-c]carbazole-5,7-dione]	140 nM
